Ends that are not written are not given here.
Tests used:
Format in all cases: cell-based, human
[1] = system: dTHP-1 cells; assay: DCATH-2 training of dTHP-1 cells in the presence of pathway inhibitors; details: 1 μg/ml Pam3CSK4; for effect of inhibitor on DCATH-2 training (amplified Pam3CSK4-induced TNFα production): inhibitor 1 h before and during priming with 5 μM DCATH-2, 3 days rest; for Pam3CSK-induced TNFα production in the presence of inhibitor: reference level of FIG. 4a, means, SEM, 3 experiments
Procedure: (§1) THP-1 cells were cultured in Iscove Modified Dulbecco Media (IMDM, Gibco) containing Glutamax-I, sodium pyruvate, 10% fetal calf serum at 37° C. and 5% CO2. For differentiation to macrophage-like cells, THP-1 cells were grown in IMDM/FCS medium containing 8 of 100 nM PMA and seeded in 96 wells (5×10^4 cells/well), 24 wells (3×10^5 cells/well) or 6 wells plates (1×10^6 cells/well) during 48 h. Subsequently, dTHP-1 were washed with pre-warmed IMDM/FCS, left overnight to rest and primed during 1 to 24 h with 2-10 μM peptides of fresh IMDM/FCS medium, washed 3 times in medium. After 3 days rest cells were stimulated with various stimuli: S. minnesota LPS (10 ng/ml), E. coli LPS (10 or 50 ng/ml), Pam3CSK4 (1 μg/ml) or Pam2CSK4 (1 μg/ml). After 24 h supernatants were collected and stored at −20° C. For inhibition, dTHP-1 cells were pre-incubated for 1 h before priming and during priming with rapamycin (10 nM), AICAR (50 nM), metformin (0.3 mM), wortmannin (1 μM), ascorbate (50 μM), SB203580 (10 μM), PD98059 (10 μM), SP600125 (10 μM), EGCG (40 μM), anacardic acid (50 μM), curcumin (10 μM), garcinol (10 μM), Bay-11-7085 (10 μM), MTA (1 mM), MM-102 (25 μM), suramin (50 μM), KN-62 (3 μM), nystatin (10 μg/ml), and chlorpromazine (10 μM).
(§2) TNFα, IL-6, CXCL10 and CCL5 production were measured using ELISA (R&D systems) following instructions of the manufacturer.

[2] = system: dTHP-1 cells; assay: Confocal imaging of Tamra-labelled DCATH-2 uptake by dTHP-1 cells; details: 1 h pre-incubation with inhibitor, 3 h priming with Tamra-DCATH-2
Procedure: 3×10^5 dTHP-1 cells were seeded on 8 mm coverslips in 24 wells plates and differentiated for 48 h with 100 nM PMA in 0.5 ml medium. Wells were washed 3 times, and cells were primed for 3 h with Tamra-labelled DCATH-2 (TD) or medium. For inhibition conditions, cells were pre-incubated before priming for 1 h with 3 μM KN-62, 50 μM suramin, 10 μM chlorpromazine, or 10 μg/ml nystatin. After priming, coverslips were washed 3 times with warm medium and fixated for 30 min in 4% paraformaldehyde solution (0.1 M phosphate buffer, pH 7.4). After staining of nuclei with Hoechst (Molecular probes) for 10 min, coverslips were mounted on glass slides using ProLong glass antifade mountant (Thermofisher, P36980). Confocal images were acquired on a Leica SPE-II using the 100×HCX PLAN APO (NA=1.4-0.7) objective. Imaging was performed using a quadruple band beam splitter for the 561 nm laser. Visualization of Hoechst stained dTHP-1 cells was done with a 405 nm (100 mW) Coherent Violet Cube laser. Image analysis was done using composite images of both channels. In brief, regions of interest were set manually using DIC for segmentation. To isolate puncta from background noise, a threshold was set for the Tamra channel and intensity and area of puncta were measured partially automated using a script.

[3] = system: dTHP-1 cells; assay: Innate immune training of dTHP-1 cells by cathelicidin peptides, cytokine ELISA after TLR agonist re-stimulation; details: priming 24 h with 10 μM peptide; 100 nM PMA dTHP-1 cells; 3 days rest; re-stimulated with 10 ng/ml Salmonella minnesota LPS
Procedure: as §1, §2
Extrapolating from the trained immunity experiments with human monocytes, we examined if mature cathelicidin peptides could induce trained immunity in TH P-1 cells, a human monocyte cell line. TH P-1 cells were differentiated with 100 nM or 8 nM phorbol 12-myristate 13-acetate (PMA) during 48 h washed 3 times and, after overnight rest, primed with 2-10 μM of chicken cathelicidin 2 (CATH-2), its full D-analog DCATH-2 or human cathelicidin LL-37 for 24 h. Subsequently, dTHP-1 cells were washed 3 times and re-stimulated after a 3-day rest period with TLR agonists (24 h) (FIG. 1a). […] Priming with 5 μM of its full-D-amino acid analog DCATH-2 amplified 2- to 3-fold the TNFα and IL-6 production in response to LPS stimulation. A minor response was found for priming with 10 μM LL-37, which amplified IL-6 production 1.4-fold in 100 nM differentiated cells.

Compound | effect of inhibitor on DCATH-2 training (amplified Pam3CSK4-induced TNFα production) [1] | further results
NC(=O)c1ncn([C@@H]2O[C@H](COP(=O)(O)O)[C@@H](O)[C@H]2O)c1N [AICAR, 5-aminoimidazole-4-carboxamide ribonucleotide] | did not result in a significant reduction | Pam3CSK-induced TNFα production in the presence of inhibitor [1]: 335 ± 89 pg/mL
CC(C)(C)c1ccc(S(=O)(=O)/C=C/C#N)cc1 [Bay-11-7085] | did not impair | –
O=C(O[C@@H]1Cc2c(O)cc(O)cc2O[C@@H]1c1cc(O)c(O)c(O)c1)c1cc(O)c(O)c(O)c1 [EGCG, epigallocatechin gallate] | abrogated | –
CN([C@@H](Cc1ccc(OS(=O)(=O)c2cccc3cnccc23)cc1)C(=O)N1CCN(c2ccccc2)CC1)S(=O)(=O)c1cccc2cnccc12 [KN-62] | partially inhibited | effect of inhibitor on uptake of TAMRA-labelled DCATH-2 by dTHP-1 cells [2]: reduced uptake
CCC(CC)(NC(=O)C(C)C)C(=O)N[C@@H](CCCN=C(N)N)C(=O)NC1(C(=O)NC(c2ccc(F)cc2)c2ccc(F)cc2)CCCC1 [MM-102] | not affected | –
COc1cccc(-c2cc(=O)c3ccccc3o2)c1N [PD58059] | no effect | –
C[S+]([O-])c1ccc(-c2nc(-c3ccncc3)c(-c3ccc(F)cc3)[nH]2)cc1 (stereo not shown) [SB203580] | completely blocked | –
Oc1c2ccccc2c2c3c(cccc13)N=N2 [SP600125] | no effect | –
CCCCCCCCCCCCCCCc1cccc(O)c1C(=O)O [anacardic acid] | abrogated | –
O=C1O[C@H]([C@@H](O)CO)C(O)=C1O [ascorbate] | – | Pam3CSK-induced TNFα production in the presence of inhibitor [1]: 421 ± 112 pg/mL
CN(C)CCCN1c2ccccc2Sc2ccc(Cl)cc21 [chlorpromazin, chlorpromazine] | not affected | effect of inhibitor on uptake of TAMRA-labelled DCATH-2 by dTHP-1 cells [2]: not affected
COc1cc(/C=C/C(=O)CC(=O)/C=C/c2ccc(O)c(OC)c2)ccc1O [curcumin] | not by garcinol or curcumin | –
CN(C)C(=N)N=C(N)N [metformin] | did not result in a significant reduction | Pam3CSK-induced TNFα production in the presence of inhibitor [1]: 387 ± 99 pg/mL
C[C@@H]1[C@H](O)[C@@H](C)/C=C/C=C/CC/C=C/C=C/C=C/C=C/C(O[C@H]2O[C@H](C)[C@@H](O)[C@H](N)[C@@H]2O)CC2O[C@](O)(CC(O)C(O)CCC(O)CC(O)CC(O)CC(=O)O[C@H]1C)CC(O)C2C(=O)O (stereo partly shown) [nystatin] | strongly impaired | effect of inhibitor on uptake of TAMRA-labelled DCATH-2 by dTHP-1 cells [2]: reduced uptake
CO[C@H]1C[C@@H]2CC[C@@H](C)[C@@](O)(O2)C(=O)C(=O)N2CCCC[C@H]2C(=O)O[C@H]([C@H](C)C[C@@H]2CC[C@@H](O)[C@H](OC)C2)CC(=O)[C@H](C)/C=C(\C)[C@@H](O)[C@@H](OC)C(=O)[C@H](C)C[C@H](C)/C=C/C=C/C=C/1C [rapamycin] | – | Pam3CSK-induced TNFα production in the presence of inhibitor [1]: 318 ± 45 pg/mL
Cc1ccc(C(=O)Nc2ccc(S(=O)(=O)O)c3cc(S(=O)(=O)O)cc(S(=O)(=O)O)c23)cc1NC(=O)c1cccc(NC(=O)Nc2cccc(C(=O)Nc3cc(C(=O)Nc4ccc(S(=O)(=O)O)c5cc(S(=O)(=O)O)cc(S(=O)(=O)O)c45)ccc3C)c2)c1 [suramin] | completely impaired | effect of inhibitor on uptake of TAMRA-labelled DCATH-2 by dTHP-1 cells [2]: reduced uptake
COC[C@H]1OC(=O)c2coc3c2[C@@]1(C)C1=C(C3=O)[C@@H]2CCC(=O)[C@@]2(C)C[C@H]1OC(C)=O [wortmannin] | – | Pam3CSK-induced TNFα production in the presence of inhibitor [1]: 354 ± 135 pg/mL
LLGDFFRKSKEKIGKEFKRIVQRIKDFLRNLVPRTES [LL-37, human cathelicidin, reference compound] | – | amplification of IL-6 production [3]: 1.4 fold
RFGRFLRKIRRFRPKVTITIQGSARF-NH2 [CATH-2, chicken cathelicidin 2 peptide] | – | amplification of IL-6 production [3]: 1.8 fold

— patent US20240050526A1, “CATH2 DERIVATIVES FOR STIMULATING INNATE IMMUNE MEMORY” (priority 2020, published 2024)
